Source: publication PMC2752324 (Bioorganic & medicinal chemistry letters, 2008)

Target: T1, tissue-nonspecific alkaline phosphatase (TNAP) (Homo sapiens, UniProt P05186)
T1 sequence (P05186 18-502 limits assumed): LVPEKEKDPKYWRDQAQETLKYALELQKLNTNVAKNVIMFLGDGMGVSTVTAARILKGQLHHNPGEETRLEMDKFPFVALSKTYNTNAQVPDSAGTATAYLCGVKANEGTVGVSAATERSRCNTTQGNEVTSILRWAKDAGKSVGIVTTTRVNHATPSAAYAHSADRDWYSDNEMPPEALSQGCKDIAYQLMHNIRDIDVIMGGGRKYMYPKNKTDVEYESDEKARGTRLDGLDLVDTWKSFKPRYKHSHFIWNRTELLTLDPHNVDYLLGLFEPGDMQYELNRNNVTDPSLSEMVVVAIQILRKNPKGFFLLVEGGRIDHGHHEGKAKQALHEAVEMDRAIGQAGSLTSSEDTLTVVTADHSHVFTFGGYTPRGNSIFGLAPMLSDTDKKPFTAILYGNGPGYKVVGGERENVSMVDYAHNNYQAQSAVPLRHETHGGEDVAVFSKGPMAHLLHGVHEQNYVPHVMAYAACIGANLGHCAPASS
Assay: TNAP luminescence-based inhibition assay
Format: biochemical

Row | Compound | improvement in potency (4 versus tricyclic derivative 3) | selectivity for TNAP (versus PLAP and GAPDH) | times more potent against TNAP (versus screening hit 1)
1 | O=C(c1[nH]nc2c1COc1ccccc1-2)N1CCCC1 [Compound 4] | 3 fold |  | 
2 | O=C(NCCO)c1cc(-c2ccc(Cl)c(Cl)c2Cl)n[nH]1 [Compound 9v] |  | at least 2000 fold | approximately 200 times
